Consider one molecule from article PMC11833175, “Synthesis, characterization, antimicrobial, cytotoxic and carbonic anhydrase inhibition activities of multifunctional pyrazolo-1,2-benzothiazine acetamides” (Beilstein Journal of Organic Chemistry, 2025).

SMILES strings stand for the structures. In brackets after ≈: the same amount, converted by molar mass. Bounds are passed on as bounds.

Data set [1] has as its system Staphylococcus aureus (ATCC 25923). Description: Microbroth single-dose antimicrobial assay, susceptible S. aureus. In kind it is cell-based. To be noted: single dose 125 μg/mL. Here is the method:
(§1) Microbroth single dose antimicrobial assays were performed against different pathogens including susceptible Staphylococcus aureus (ATCC 25923), Escherichia coli (ATCC 8739), and Candida albicans (ATCC 90027). Pathogens were treated with 125 μg/mL of tested compounds in duplicate.
(§2) The antimicrobial evaluation of the targeted compounds was carried out against five different pathogens including Staphylococcus aureus (susceptible, ATCC 25923; methicillin-resistant, ATCC BAA-41; multidrug-resistant, ATCC BAA-44), Escherichia coli ATCC 8739, and Candida albicans ATCC 90027. Reference antibiotics and final concentrations used as positive controls in these experiments were kanamycin (susceptible S. aureus, 50 μg), vancomycin (methicillin and multidrug-resistant S. aureus, 25 μg), ampicillin (E. coli, 50 μg), and amphotericin B (C. albicans, 25 μg). The final concentration of the tested compounds was 125 μg/mL for microbroth single-dose assays. Dimethyl sulfoxide was used at a final concentration of 0.1% as negative control. […] American type culture collection (ATCC, Manassas, VA, USA) has provided all microbial strains used in above experiments.
(§3) Antimicrobial Single-dose assay for compounds 7(a-n) against
(§4) S. aureus E. coli C. albicans
(§5) Figure S43: Graph showing results of antimicrobial single-dose microbroth assays of compounds 7a–n, dose of tested compounds = 125 μg/mL, control antibiotic s used: kanamycin = 50 μg/mL (Staphylococcus aureus ATCC 25923), ampicillin = 50 μg/mL (Escherichia coli ATCC 8739), and amphotericin B = 25 μg/mL (Candida albicans ATCC 90027). Dimethylsulfoxide ( DMSO) was used as the negative control at 1.25% […]
(§6) Table S1: Results of single-dose antimicrobial and cytotoxic assays for compounds 7a–n; dosage of tested compounds = 125 μg/mL; antibiotic control dosage (kanamycin = 50 μg/mL (Staphylococcus aureus ATCC 25923), ampicillin = 50 μg/mL (Escherichia coli ATCC 8739), and amphotericin B = 25 μg/mL (Candida albicans ATCC 90027).
(§7) For cytotoxic assays, dosage of tested compounds = 10 μM; dosage of mensacarcin […]
(§8) Percent survival / % Cell viability
(§9) Samples S. aureus E.coli (SD) C. albicans (SD) HCT-116 […]
Background: Broth dilution looks for growth in wells or tubes with falling amounts of substance.

Data set [2] concerns Escherichia coli (ATCC 8739). Description: Microbroth single-dose antimicrobial assay, E. coli. The data set is classed as cell-based. Particulars: ATCC8739, single dose 125 μg/mL, E. coli ATCC 8739, value (SD). As to the method:
as §1, §2, §3, §4, §5, §6, §7, §8, §9

For data set [3], the system named is Candida albicans (ATCC 90027). The experiment in a line: Microbroth single-dose antimicrobial assay, C. albicans. The data set is classed as cell-based. To be noted: ATCC90027, single dose 125 μg/mL, C. albicans ATCC 90027, value (SD). Here is the method:
as §1, §2, §3, §4, §5, §6, §7, §8, §9

The subject of data set [4] is susceptible S. aureus (ATCC 25923). The experiment in a line: Microbroth dilution assay (MIC90), susceptible S. aureus. In kind it is cell-based, Staphylococcus aureus. Here is the method:
(§10) Microbroth dilution assays were performed for the determination of MIC (minimum inhibitory concentration, MIC90) values for compounds 7b and 7h against three different strains of Staphylococcus aureus: susceptible (ATCC 25923), methicillin-resistant (ATCC BAA-41), and multidrug-resistant (ATCC BAA-44).
as §2

Data set [5] concerns methicillin-resistant S. aureus (ATCC BAA-41). Description: Microbroth dilution assay (MIC90), methicillin-resistant S. aureus. The data set is classed as cell-based, Staphylococcus aureus. To be noted: methicillin-resistant S. aureus ATCC BAA-41, 90% growth inhibition. Here is the method: as §10, §2
The subject of data set [6] is multidrug-resistant S. aureus (ATCC BAA-44). The experiment in a line: Microbroth dilution assay (MIC90), multidrug-resistant S. aureus. The data set is classed as cell-based, Staphylococcus aureus. Particulars: multidrug-resistant S. aureus ATCC BAA-44, 90% growth inhibition. Here is the method: as §10, §2
Data set [7] can be described thus: Single-dose MTT cell viability assay. In kind it is cell-based, human. Particulars: human, HCT-116 cells (ATCC CCL-247), 48 h, 0.1% DMSO control = 100%, value (SD). Here is the method: (§11) Single-dose MTT assays were performed for compounds 7a–n against the human colon cancer mammalian cell line (HCT-116, ATCC CCL-247) for evaluating their inhibition of mammalian cell metabolism. Solutions of the tested compounds were prepared in DMSO and cancer cells were treated with 10 μM doses of compounds using the apoptosis inducing standard mensacarcin (10 μM) as a positive control.
(§12) Single-dose MTT assays were performed for compounds 7a–n with the human colon cancer mammalian cell line (HCT-116, ATCC CCL-247) for evaluating the compounds’ inhibitory effects on cell viability. Stock solutions of compounds were prepared in DMSO and cancer cells were treated with 10 μM doses of each compound and mensacarcin (10 μM) as a positive control. MTT in 1X PBS was added for a final concentration of 0.5 mg/mL 48 hours post compound addition to each well. Post incubation at 37 °C was carried out for 2 h. After the removal of the growth media, purple formazan metabolic product was dissolved in DMSO. A Biotek Synergy reader (96-well plate) was used to take absorbance of all samples at 550 nm. Cell viability was calculated as the ability of the metabolically active cells to reduce tetrazolium salt MTT [3-(4,5-dimethylthiazolyl-2)-2,5-diphenyltetrazolium bromide]. Control metabolic activity shown by cells treated with 0.1% DMSO was set to 100% cell growth. […]
as §7, §8, §9
(§13) HCT-116 (Human Colorn cancer cell line) Single -dose assay for […]
(§14) Figure S44: Graph showing cell viability of compounds 7a–n against human colon carcinoma cell line (HCT-116, ATCC CCL-247), dose of tested compounds = 10 μM, dose of positive control (mensacarcin) = 10 μM.

Data set [8] deals with human colon cancer cell line HCT-116 (ATCC CCL-247). Description: Single-dose MTT cell viability assay. In kind it is cell-based. Particulars: 10 μM. As to the method:
as §11, §12, §7, §8, §9, §13, §14
A general note: Tetrazolium dyes change colour on reduction, which living cells bring about.

Data set [9] deals with human carbonic anhydrase CA I (Homo sapiens, UniProt P00915). The experiment in a line: hCA inhibition, stopped-flow CO2 hydration method, CA I.
human carbonic anhydrase CA I, sequence (P00915 whole entry): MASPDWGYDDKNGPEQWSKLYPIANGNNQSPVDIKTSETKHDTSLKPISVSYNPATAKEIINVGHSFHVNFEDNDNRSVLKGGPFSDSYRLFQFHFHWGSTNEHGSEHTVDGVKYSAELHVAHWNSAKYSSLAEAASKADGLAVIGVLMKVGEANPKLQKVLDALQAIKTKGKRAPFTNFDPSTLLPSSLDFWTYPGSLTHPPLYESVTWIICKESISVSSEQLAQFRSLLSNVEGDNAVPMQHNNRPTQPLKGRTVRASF
Method: (§15) In vitro assessment of all targeted pyrazolobenzothiazine scaffolds for human carbonic anhydrase (hCA) inhibition was performed adopting a stopped-flow CO2 hydration method. The enzyme inhibition assays were carried out for four types of human CA isoforms: CA I, CA II, CA IX, and XII. […] Reason for the selection of these CA isoforms was to develop a comparative relationship for inhibition selectivity between CAs (IX, XII) attributed to tumour/cancer and other CAs (I, II). […] Analyses were carried out in-house using recombinant enzymes as described.
Data set [10] deals with human carbonic anhydrase CA II (Homo sapiens, UniProt P00918). The experiment in a line: hCA inhibition, stopped-flow CO2 hydration method, CA II. Particulars: Ki for targeted CAs, II, mean from three assays, errors ±5–10%.
Method: as §15
Data set [11] concerns the target human carbonic anhydrase CA IX (Homo sapiens, UniProt Q16790). The experiment in a line: hCA inhibition, stopped-flow CO2 hydration method, CA IX. Particulars: Ki for targeted CAs, IX, mean from three assays, errors ±5–10%.
Method: as §15
Data set [12] concerns the target human carbonic anhydrase CA XII (Homo sapiens, UniProt O43570). The experiment in a line: hCA inhibition, stopped-flow CO2 hydration method, CA XII. Particulars: Ki for targeted CAs, XII, mean from three assays, errors ±5–10%.
Method: as §15

human carbonic anhydrase CA XII, sequence (O43570 25-354): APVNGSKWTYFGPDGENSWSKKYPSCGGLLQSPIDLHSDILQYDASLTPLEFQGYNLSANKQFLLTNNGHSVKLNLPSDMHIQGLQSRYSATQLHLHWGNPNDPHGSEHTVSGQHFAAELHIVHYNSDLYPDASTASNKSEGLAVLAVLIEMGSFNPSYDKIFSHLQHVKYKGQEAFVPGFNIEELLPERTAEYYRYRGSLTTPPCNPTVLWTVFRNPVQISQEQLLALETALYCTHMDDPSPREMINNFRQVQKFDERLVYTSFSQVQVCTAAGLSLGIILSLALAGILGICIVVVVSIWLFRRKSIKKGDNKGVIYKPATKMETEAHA

The term MIC90 denotes an inhibitory concentration at the 90% level, which refers to growth in some studies and to a panel of isolates in others. What is called viability is the share of living cells, or the viability signal relative to a control. One may read the Ki as a measure of affinity in units of concentration, obtained from inhibition or displacement. A low value points to higher affinity. In turn, `CN1c2c(O)nn(CC(=O)Nc3ccc(Br)cc3)c2-c2ccccc2S1(=O)=O` [Compound 7h] gave a percent survival of S. aureus at 125 µg/mL in data set [1] (Staphylococcus aureus, ATCC25923, S. aureus ATCC 25923, value (SD)) of 16.7%. For the same molecule, the “antibacterial activity against susceptible S. aureus (in words)” value in [1] (duplicate) is reported as “significant antibacterial activity”. For the same molecule, the percent survival at 125 µg/mL in data set [2] was > 100%; in [3], 65.1%. The “MIC90 SA” value in [4] (90% growth inhibition) amounted to 8 µg/mL (≈ 17.3 µM). For the same molecule, the MIC90 worked out at 8 µg/mL (≈ 17.3 µM) in data set [4] (Staphylococcus aureus, ATCC25923, 90% growth inhibition); 8 µg/mL (≈ 17.3 µM) in data set [5] (Staphylococcus aureus, ATCC BAA-41 / MRSA, read-out: MIC90 MRSA); 8 µg/mL (≈ 17.3 µM) in data set [6] (Staphylococcus aureus, ATCCBAA44, read-out: MIC90 MDRSA). Besides, in data set [5], the “MIC90 MRSA” value worked out at 8 µg/mL (≈ 17.3 µM). Moreover, the “MIC90 MDRSA” value in data set [6] was 8 µg/mL (≈ 17.3 µM). In data set [7], the viability at 48 h, 10 µM was > 100%. Further, in data set [8], the “effect on HCT-116 cell viability (in words)” value is “no significant decrease in mammalian cell viability”. The Ki in data set [9] was > 100 µM; in data set [10], 95.2 µM; in [11] it was 90.8 µM; in data set [12], 91.7 µM.
